In patent US12415830B2, “Steroid compound, and use thereof and preparation method therefor” (Chengdu Kanghong Pharmaceutical Co Ltd, priority 2019, dated 2025):

Assay: Pharmacokinetics in brain and plasma after dosing
Type: in vivo, CD-1 mice
Method: KH022 in the present invention and the control described in example 56
The experimental animals are CD-1 mice.
Preparation of test compounds with 30% SBECD in water for intragastric administration. On the first day of the experiment, the animals in the first group are […] with the solution of KH022 or the control with the dosage of 5 mL/kg; before the administration, the animals were weighed, and the administration volume was calculated according to the body weight. Whole blood samples (about 0.03 ml per group) were collected at a specified time by saphenous vein puncture (or other suitable collection locations). Blood samples were immediately processed for plasma by centrifugation at approximately 4° C., 3,200 g for 10 min, quickly placed in dry ice, and kept below −20° C. until LC/MS/MS analysis. At each time point, animals were euthanized using CO2 and then brain tissue was collected, rinsed and dried with physiological saline, and homogenized with 4 times the brain weight (g) volume of 15 mM PBS (pH7.4):MeOH=2:1. After homogenization, samples were transferred to labeled centrifuge tubes and quickly placed in dry ice, stored at or below −20° C. for LC-MS/MS analysis.
The concentrations of the test compound in dose formulation samples was determined by the LC/UV, and the calibration curve contains at least 6 calibration standards, R^2≥0.999. The concentrations of the test compound in biological matrix was determined by the LC/MS/MS method. The retention time of test compounds or internal standards, chromatogram acquisition and chromatogram integration were processed by software Analyst (Applied Biosystems), and data statistics were processed by software Watson LIMS (Thermo Fisher Scientific) or Analyst (Applied Biosystems). The unit of the analyte concentration in the sample is ng/ml, with 3 significant digits reserved, and all values expressed in percentages (such as % deviation and % coefficient of variation, etc.) were kept to one decimal place. […]

SMILES: C[C@@]1(O)CC[C@H]2[C@H](CC[C@@H]3[C@@H]2CC[C@]2(C)[C@@H](C(=O)Cn4cc(C#N)cn4)CC[C@@H]32)C1 [The control, reference compound]
- detection in the brain (mouse brain, 8h): no detection

SMILES: C[C@@]1(O)CC[C@@]2(C)[C@@H](CC[C@@H]3[C@@H]2CC[C@]2(C)[C@@H](C(=O)Cn4ncnn4)CCC[C@@H]32)C1 [KH022]
- content in the mouse brain relative to the control (2h, same dosage): 2.5 times
- clearance in the mouse brain compared with the control (same dosage): cleared more slowly
